Results published in patent US10899631B2, “Ferrous modified selenium sol for inhibiting accumulation of cadmium and arsenic in rice and preparation method and application thereof” (priority 2018, dated 2021).
Read-outs that look alike come from different tables or passages of the source.

What was measured:
OsHMA3 = assay: Expression level of OsHMA3 in rice suspension cells, real-time fluorescence quantitative PCR; format: cell-based, Oryza sativa L. Japonica; details: 24 h with treatment, then 10 μM cadmium and 5 μM arsenic for 24 h, CK 1.47 ± 0.07
Method: (§1) Method of culturing rice suspension cells (Oryza sativa L. Japonica): Selecting mature and plump seeds of Japanese rice Nipponbare, and disinfecting them with 70% alcohol by volume or 30% sodium hypochlorite by mass; evenly sowing the seeds with tweezers onto a plate containing a solid medium, and then placing the plate into an incubator to culture in the dark at a culture temperature of 25° C.; after a period of time, removing hypocotyls from the seeds with tweezers, and culturing the hypocotyls in another solid medium to obtain callus; crushing 10 g of the callus, adding it to a triangular flask containing a liquid medium (50 mL), and culturing in a shaker at 28° C. for about one month to obtain rice suspension cells.
(§2) The basic components of the above solid medium and liquid medium are consistent, both being an MS medium. The solid medium was prepared by adding agar to the liquid medium (adding […] of the liquid medium, and then heating, melting, cooling and solidifying to obtain the solid medium). The basic formula was as follows: […]
(§3) In order to study the effect of the ferrous modified selenium sol on the expression level of the cadmium transporter in rice suspension cells, the following treatments were performed on the rice suspension cells: […]

OsNramp5 = assay: Expression level of OsNramp5 in rice suspension cells, real-time fluorescence quantitative PCR; format: cell-based, Oryza sativa L. Japonica; details: 24 h with treatment, then 10 μM cadmium and 5 μM arsenic for 24 h, CK 4.84 ± 0.15
Method: as §1, §2, §3

OsLCT1 = assay: Expression level of OsLCT1 in rice suspension cells, real-time fluorescence quantitative PCR; format: cell-based, Oryza sativa L. Japonica; details: 24 h with treatment, then 10 μM cadmium and 5 μM arsenic for 24 h, CK 4.62 ± 0.10
Method: as §1, §2, §3

OsLsi1 = assay: Expression level of OsLsi1 in rice suspension cells, real-time fluorescence quantitative PCR; format: cell-based, Oryza sativa L. Japonica; details: 24 h with treatment, then 10 μM cadmium and 5 μM arsenic for 24 h, CK 4.74 ± 0.11
Method: as §1, §2, §3

OsLsi2 = assay: Expression level of OsLsi2 in rice suspension cells, real-time fluorescence quantitative PCR; format: cell-based, Oryza sativa L. Japonica; details: 24 h with treatment, then 10 μM cadmium and 5 μM arsenic for 24 h, CK 4.91 ± 0.21
Method: as §1, §2, §3

rice suspension cells [1] = assay: Content of cadmium in rice suspension cells; format: cell-based, Oryza sativa L. Japonica; details: for Cd Content: 10 μM cadmium and 5 μM arsenic for 24 h, CK 12.8 ± 0.9; for Cd reduction ratio (inhibition rate of cadmium): compared with the blank control
Method: as §1, §2
(§4) Ferrous sulfate, sodium selenite and the ferrous modified selenium sol prepared in Examples 1, 2 and 3 were added to a rice suspension cell system, respectively, so that in the final system the ferrous sulfate solution containing the iron element at a mass-volume ratio of 0.05% (T1), the sodium selenite solution containing the selenium element at a mass-volume ratio of 0.025% (T2), and the ferrous modified selenium sol prepared in Example 1 (T3) were diluted 50 times, the ferrous modified selenium sol prepared in Example 2 was diluted 150 times (T4), and the ferrous modified selenium sol prepared in Example 3 was diluted 100 times (T5). The rice suspension cells without any treatment were used as a control (CK). After 24 h of culture, cadmium and arsenic were added to the culture system, so that the final concentrations of cadmium and arsenic were 10 μM and 5 μM, respectively. With the temperature kept constant at 28° C. in a shaker, the rice cells of each treatment were continuously cultured for 24 h and then collected. RNA was extracted from the rice cells and reversely transcribed, and the expression levels of the genes OsNramp5, OsHMA3, OsLCT1, OsLsi1 and OsLsi2 were detected.
(§5) The rice cells obtained by the above respective treatments were collected and washed centrifugally with ultrapure water, and then the contents of cadmium and arsenic in the cells were measured.

rice suspension cells [2] = assay: Content of arsenic in rice suspension cells; format: cell-based, Oryza sativa L. Japonica; details: for As content: 10 μM cadmium and 5 μM arsenic for 24 h, CK 7.12 ± 0.82; for As reduction ratio (inhibition rate of arsenic): compared with the blank control
Method: as §1, §2, §4, §5

rice [3] = format: in vivo, rice variety Huang-Li-Zhan
Excerpt: (§6) The surface soil (0-30 cm) of a rice field polluted by heavy metals located in Boluo Town, Huizhou City, Guangdong Province was collected and analyzed from April to July of 2016. […] The tested rice variety was Huang-Li-Zhan.
(§7) There were the following six treatments in the experiment: (1) Blank control (CK): An equal amount of clear water was sprayed. (2) Treatment 1 (T1): The silica sol foliar barrier (prepared in Example 3) was sprayed once on the leaves at the tillering stage of rice when the foliar barrier was diluted 50 times and sprayed at 100 L/mu. (3) Treatment 2 (T2): The selenium sol foliar barrier (prepared in Example 3) was sprayed twice on the leaves, the first at the tillering stage of rice when the foliar barrier was diluted 100 times and sprayed at 50 L/mu, the second at the heading stage of rice when the foliar barrier was diluted 100 times and sprayed at 150 L/mu. (4) Treatment 3 (T3): The selenium sol foliar barrier (prepared in Example 3) was sprayed three times on the leaves, the first at the tillering stage of rice when the foliar barrier was diluted 100 times and sprayed at 80 L/mu, the second at the heading stage of rice when the foliar barrier was diluted 100 times and sprayed at 120 L/mu, the third at the filling stage of rice when the foliar barrier was diluted 250 times and sprayed at 150 L/mu. (5) Treatment 4 (T4): The ferrous sulfate solution containing the iron element at a mass-volume ratio of 0.1% was sprayed on the leaves at the tillering stage of rice at 100 L/mu. (6) Treatment 5 (T5): The sodium selenite solution containing the selenium element at a mass-volume ratio of 0.05% was sprayed on the leaves at the tillering stage of rice at 100 L/mu.
(§8) It was selected that the above foliar preparations were sprayed at 4-6 pm on a sunny day; when sprayed, the atomized droplets were controlled to be smaller than 1000 microns, and sprayed uniformly on both sides of the rice leaves. Each treatment was repeated four times, randomly arranged. There were totally 36 test plots, each plot having an area of 5×6=30 m^2 to ensure independent drainage and irrigation.

rice [4] = assay: Field test of foliar barriers: content of cadmium in rice; format: in vivo, rice variety Huang-Li-Zhan; details: for content of cadmium in rice decreased by, compared with the control (CK) / content of cadmium in rice: sprayed once at tillering stage at 100 L/mu (T1, T4, T5); for content of cadmium in rice: control 0.308 mg/kg
Excerpt: as §6, §7, §8

rice [5] = assay: Field test of foliar barriers: content of inorganic arsenic in rice; format: in vivo, rice variety Huang-Li-Zhan; details: sprayed once at tillering stage at 100 L/mu (T1, T4, T5); for content of inorganic arsenic in rice: control 0.280 mg/kg
Excerpt: as §6, §7, §8

`O=S(=O)([O-])[O-].[Fe+2]` [ferrous sulfate] was tested, and the OsHMA3 expression (OsHMA3) was 2.53 ± 0.12, the OsNramp5 expression (OsNramp5) was 3.15 ± 0.16 and the OsLCT1 expression (OsLCT1) was 3.82 ± 0.11. The OsLsi1 expression (OsLsi1) was 4.15 ± 0.16, the OsLsi2 expression (OsLsi2) was 4.78 ± 0.27 and the “Cd Content” value (rice suspension cells [1]) was 8.3 ± 0.6 µg/g. The “Cd reduction ratio (inhibition rate of cadmium)” value (rice suspension cells [1]) was 35.2%, the As content (rice suspension cells [2]) was 6.89 ± 0.71 µg/g and the “As reduction ratio (inhibition rate of arsenic)” value (rice suspension cells [2]) was 3.2%. The “Dry production per mu” value (rice [3]; in vivo) was 410 kg, the Plot average yield (rice [3]; in vivo) was 30.04abc kg and the “Plot yield I” value (rice [3]; in vivo) was 29.4 kg. For the same molecule, the “Plot yield II” value (rice [3]; in vivo) was 30.75 kg, the “Plot yield III” value (rice [3]; in vivo) was 30.3 kg and the “Wet production per mu” value (rice [3]; in vivo) was 668 kg. For the same molecule, the Yield increase ratio (rice [3]; in vivo) was 6.4%, the “Plot yield IV” value (rice [3]; in vivo, iv) was 29.7 kg and the “cadmium and inorganic arsenic content of the treated rice against the food hygiene standard” value (rice [4]; sol in regimens T1, T2 and T3, ferrous sulfate T4, sodium selenite T5) was “still exceeded the food hygiene standard”. The “content of cadmium in rice decreased by, compared with the control (CK)” value (rice [4]) was 18.8%, the “content of cadmium in rice” value (rice [4]) was 0.250 mg/kg and the “content of inorganic arsenic in rice decreased by, compared with the control (CK)” value (rice [5]) was 18.7%. The “content of inorganic arsenic in rice” value (rice [5]) was 0.255 mg/kg.
Work on `O=[Se](O)O` [sodium selenite] yielded an OsHMA3 expression (OsHMA3) of 2.15 ± 0.14, an OsNramp5 expression (OsNramp5) of 3.85 ± 0.21 and an OsLCT1 expression (OsLCT1) of 4.42 ± 0.14. The OsLsi1 expression (OsLsi1) was 3.11 ± 0.17, the OsLsi2 expression (OsLsi2) was 3.07 ± 0.11 and the “Cd Content” value (rice suspension cells [1]) was 9.1 ± 1.2 µg/g. The “Cd reduction ratio (inhibition rate of cadmium)” value (rice suspension cells [1]) was 28.9%, the As content (rice suspension cells [2]) was 4.96 ± 0.53 µg/g and the “As reduction ratio (inhibition rate of arsenic)” value (rice suspension cells [2]) was 30.3%. The “yield of rice decreased by” value (rice [3]; field, T5: sprayed once at tillering stage at 100 L/mu, 0.05% Se, compared with CK) was 3.8%, the Plot average yield (rice [3]; field, sprayed once at tillering stage at 100 L/mu (T1, T4, T5), CK 28.05) was 26.95c kg and the “Dry production per mu” value (rice [3]; field, sprayed once at tillering stage at 100 L/mu (T1, T4, T5), CK 386) was 371 kg. The “Wet production per mu” value (rice [3]; field, sprayed once at tillering stage at 100 L/mu (T1, T4, T5), CK 623) was 599 kg, the Yield increase ratio (rice [3]; field, sprayed once at tillering stage at 100 L/mu (T1, T4, T5), compared with CK) was −3.8% and the “Plot yield II” value (rice [3]; field, sprayed once at tillering stage at 100 L/mu (T1, T4, T5), plot II, CK 30.15) was 27.15 kg. For the same molecule, the “Plot yield III” value (rice [3]; field, sprayed once at tillering stage at 100 L/mu (T1, T4, T5), plot III, CK 28.95) was 29.12 kg, the “Plot yield IV” value (rice [3]; field, sprayed once at tillering stage at 100 L/mu (T1, T4, T5), plot IV, CK 24.3) was 26.13 kg and the “Plot yield I” value (rice [3]; field, sprayed once on leaves at tillering stage at 100 L/mu (T1: sol diluted 50 times; T4: ferrous sulfate 0.1% Fe; T5: sodium selenite 0.05% Se), plot I, 30 m^2, CK 28.65) was 25.41 kg. The “content of cadmium in rice decreased by, compared with the control (CK)” value (rice [4]) was 10.1%, the “content of cadmium in rice” value (rice [4]) was 0.276 mg/kg and the “content of inorganic arsenic in rice decreased by, compared with the control (CK)” value (rice [5]) was 16.8%. The “content of inorganic arsenic in rice” value (rice [5]) was 0.232 mg/kg.
